Results reported in US4444759A, “GnRH Antagonists II” (The Salk Institute for Biological Studies, priority 1982, dated 1984).
Square brackets hold non-standard residues; d marks the D form. Peptide text beside a SMILES is read from it. dPhe(4-NO2) = N[C@H](Cc1ccc([N+](=O)[O-])cc1)C(=O)O; dPhe(4-NH2) = Nc1ccc(C[C@@H](N)C(=O)O)cc1; dPhe(4-Br) = N[C@H](Cc1ccc(Br)cc1)C(=O)O; dPhe(4-Cl) = N[C@H](Cc1ccc(Cl)cc1)C(=O)O; dPhe(4-F) = N[C@H](Cc1ccc(F)cc1)C(=O)O; d2Nal = N[C@H](Cc1ccc2ccccc2c1)C(=O)O

tested on: LH released by 3 nanomolar GnRH in dissociated rat pituitary cells; format: cell-based; conditions: not given
Protocol: The peptide is assayed in vitro and in vivo. The in vitro test is made using dissociated rat pituitary cells maintained in culture for 4 days prior to the assay. The levels of LH mediated in response to the application of peptides is assayed by specific radioimmunoassay for rat LH. Control dishes of cells only receive a measure which is 3 nanomolar in GnRH; experimental dishes receive a measure 3 nanomolar in GnRH plus a measure having either the present standard antagonist (for comparison purposes) i.e. [Ac-dehydro Pro^1, 4-F-D-Phe^2, D-Trp^3,6 ]-GnRH or the test peptide in concentrations ranging from 0.01 to 10 nanomolar. The amount of LH secreted in the samples treated only with GnRH is compared with that secreted by the samples treated with the peptide plus GnRH.
The ability of the test peptide to reduce the amount of LH released by 3 nanomolar GnRH is compared to that of the present standard peptide. The results are calculated using 3-5 doses of each of the peptides by the statistical program BIOPROG (provided by D. Rodbard NICHD) and are expressed as a potency relative to the present standard. The standard peptide usually blocks 50% of the LH released by GnRH at less than a ratio of 0.1 [antagonist]/1[GnRH].

Row | Compound | in vitro Potency relative to [Ac-dehydro Pro1, 4-F-D-Phe2, D-Trp3,6]-GnRH
1 | CC(=O)N[C@H](Cc1ccc2ccccc2c1)C(=O)N[C@H](Cc1ccc(F)cc1)C(=O)N[C@H](Cc1c[nH]c2ccccc12)C(=O)N[C@@H](CO)C(=O)N[C@@H](Cc1ccc(O)cc1)C(=O)N[C@H](CCCNC(=N)N)C(=O)N[C@@H](CC(C)C)C(=O)N[C@@H](CCCNC(=N)N)C(=O)N1CCC[C@H]1C(=O)NCC(N)=O [Peptide 1, [Ac-β-D-2NAL^1,4-F-D-Phe^2,D-Trp^3, D-Arg^6]-GnRH] (Ac-[d2Nal][dPhe(4-F)][dW]SY[dR]LRPG-NH2) | 0.44
2 | CC(=O)N[C@H](Cc1ccc2ccccc2c1)C(=O)N[C@H](Cc1ccc(F)cc1)C(=O)N[C@H](Cc1c[nH]c2ccccc12)C(=O)N[C@@H](CO)C(=O)N[C@@H](Cc1ccc(O)cc1)C(=O)N[C@H](Cc1ccc(N)cc1)C(=O)N[C@@H](CC(C)C)C(=O)N[C@@H](CCCNC(=N)N)C(=O)N1CCC[C@H]1C(=O)NCC(N)=O [Peptide 2] (Ac-[d2Nal][dPhe(4-F)][dW]SY[dPhe(4-NH2)]LRPG-NH2) | 1.4
3 | CC(=O)N[C@H](Cc1ccc2ccccc2c1)C(=O)N[C@H](Cc1ccc(Cl)cc1)C(=O)N[C@H](Cc1c[nH]c2ccccc12)C(=O)N[C@@H](CO)C(=O)N[C@@H](Cc1ccc(O)cc1)C(=O)N[C@H](CCCNC(=N)N)C(=O)N[C@@H](CC(C)C)C(=O)N[C@@H](CCCNC(=N)N)C(=O)N1CCC[C@H]1C(=O)NCC(N)=O [Peptide 3] (Ac-[d2Nal][dPhe(4-Cl)][dW]SY[dR]LRPG-NH2) | 0.56
4 | CCNC(=O)[C@@H]1CCCN1C(=O)[C@H](CCCNC(=N)N)NC(=O)[C@H](CC(C)C)NC(=O)[C@@H](CCCNC(=N)N)NC(=O)[C@H](Cc1ccc(O)cc1)NC(=O)[C@H](CO)NC(=O)[C@@H](Cc1c[nH]c2ccccc12)NC(=O)[C@@H](Cc1ccc(Cl)cc1)NC(=O)[C@@H](Cc1ccc2ccccc2c1)NC(C)=O [Peptide 4] (Ac-[d2Nal][dPhe(4-Cl)][dW]SY[dR]LRP-NHEt) | 0.38
5 | CCNC(=O)[C@@H]1CCCN1C(=O)[C@H](CCCNC(=N)N)NC(=O)[C@H](CC(C)C)NC(=O)[C@@H](CCCNC(=N)N)NC(=O)[C@H](Cc1ccc(O)cc1)NC(=O)[C@H](CO)NC(=O)[C@@H](Cc1c[nH]c2ccccc12)NC(=O)[C@@H](Cc1ccc([N+](=O)[O-])cc1)NC(=O)[C@@H](Cc1ccc2ccccc2c1)NC(C)=O [Peptide 5] (Ac-[d2Nal][dPhe(4-NO2)][dW]SY[dR]LRP-NHEt) | 0.20
6 | CCNC(=O)[C@@H]1CCCN1C(=O)[C@H](CCCNC(=N)N)NC(=O)[C@H](CC(C)C)NC(=O)[C@@H](CCCNC(=N)N)NC(=O)[C@H](Cc1ccc(O)cc1)NC(=O)[C@H](CO)NC(=O)[C@@H](Cc1c[nH]c2ccccc12)NC(=O)[C@@H](Cc1ccc(Br)cc1)NC(=O)[C@@H](Cc1ccc2ccccc2c1)NC(C)=O [Peptide 6] (Ac-[d2Nal][dPhe(4-Br)][dW]SY[dR]LRP-NHEt) | 0.46
7 | CC(=O)N[C@H](Cc1ccc2ccccc2c1)C(=O)N[C@H](Cc1ccc(F)cc1)C(=O)N[C@H](Cc1c[nH]c2ccccc12)C(=O)N[C@@H](CO)C(=O)N[C@@H](Cc1ccc(O)cc1)C(=O)N[C@H](CCCNC(=N)N)C(=O)N[C@@H](CC(C)C)C(=O)N[C@@H](CCCNC(=N)N)C(=O)N1CCC[C@H]1C(=O)N[C@H](C)C(N)=O [Peptide 7] (Ac-[d2Nal][dPhe(4-F)][dW]SY[dR]LRP[dA]-NH2) | 0.63

same assay, conditions: 3 nanomolar GnRH; usual value

Row | Compound | ratio [antagonist]/1[GnRH] that blocks 50% of the LH released by GnRH
8 | [Ac-dehydro Pro^1, 4-F-D-Phe^2, D-Trp^3,6 ]-GnRH [standard peptide, reference compound] | < 0.1 [antagonist]/1[GnRH]
